This note sets out measurements from patent US8420655B2, “Benzimidazole inhibitors of leukotriene production” (Boehringer Ingelheim International GmbH, priority 2009, dated 2013).

The test concerns the target T1, recombinant human FLAP protein (Homo sapiens, UniProt P20292).
T1 construct: made in house; host or cells: Sf9 insect cells (membrane fraction, 100,000 x g pellet)
T1 sequence (P20292 1-161): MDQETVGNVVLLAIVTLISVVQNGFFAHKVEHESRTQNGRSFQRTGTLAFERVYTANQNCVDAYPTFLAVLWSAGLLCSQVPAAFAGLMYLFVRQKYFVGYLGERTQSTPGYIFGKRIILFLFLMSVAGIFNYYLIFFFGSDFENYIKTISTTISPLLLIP
As to the kind of experiment: FLAP binding assay, displacement of iodinated (125I) FLAP inhibitor, Scintillation Proximity Assay format. To be noted: [125I]L-691,831 probe, membrane protein from sf9 cells; read-out: hFLAP binding IC50. As to the method:
Compounds are assessed for the ability to bind to FLAP in a binding assay that measures compound-specific displacement of an iodinated (^125I) FLAP inhibitor via a Scintillation Proximity Assay format (adapted from S. Charleson et al., Mol. Pharmacol., 1992, 41, 873-879).
Cell pellets produced from sf9 insect cells expressing recombinant human FLAP protein are resuspended in buffer A [15 mM Tris-HCl (pH 7.5), 2 mM MgCl2, 0.3 mM EDTA, 1 mM PMSF]. The cells are lysed with a Dounce homogenizer and the material is centrifuged at 10,000×g for 10 minutes. The supernatant is then collected and centrifuged at 100,000×g for 60 minutes. To prepare membrane protein for an assay, an aliquot of the 100,000×g pellet is resuspended in 1 ml of buffer A, Dounce homogenized, and finally subjected to polytron mixing (30 seconds). Membrane protein (25 μl, 5 μg) is mixed with WGA SPA beads (Amersham) and stirred for 1 h. To an assay plate (Perkin Elmer FlexiPlate) is added 25 μl of test compound prepared in Binding buffer [100 mM Tris (pH 7.5), 140 mM NaCl, 5% glycerol, 2 mM EDTA, 0.5 mM TCEP, 0.05% Tween 20], 25 μl of [^125I]L-691,831 (an iodinated analog of MK-591, Charleson et al. Mol. Pharmacol., 41, 873-879, 1992) and finally 50 μl of the bead/protein mixture. (final concentrations: beads, 200 μg/well; protein, 5 μg/well; [^125I] probe, 0 08 nM/well (17 nCi/well). The plates are shaken for 2 h before reading on a Microbeta plate reader. Non-specific binding is determined by the addition of 10 μM cold L-691,831 compound.

Molecules are shown by their SMILES.

As to `COc1ccc(-n2ncnc2C)c(-c2nc3cc(-c4cnc(N)nc4)ccc3n2C(C)(C)C)c1` [5-{1-tert-Butyl-2-[5-methoxy-2-(5-methyl-1,2,4-triazol-1-yl)-phenyl]-1H-benzimidazol-5-yl}-pyrimidin-2-ylamine], the IC50 stood at 1.5 nM.

In the case of `COCc1ccc(-n2cncn2)c(-c2nc3cc(-c4cnc(N)nc4)ccc3n2C(C)(C)C)c1` [5-[1-tert-Butyl-2-(5-methoxymethyl-2-[1,2,4]triazol-1-yl-phenyl)-1H-benzoimidazol-5-yl]-pyrimidin-2-ylamine], the concentration for half-maximal inhibition (IC50) was 13.9 nM.

Take `COc1ccc(-n2cc(Cl)cn2)c(-c2nc3cc(-c4cnc(N)nc4)ccc3n2C(C)(C)C)c1` [5-{1-tert-Butyl-2-[2-(4-chloro-pyrazol-1-yl)-5-methoxy-phenyl]-1H-benzimidazol-5-yl}-pyrimidin-2-ylamine]: the half-inhibitory concentration (IC50) came out at 1.6 nM.

In the case of `Cc1nc(C)n(-c2ccc(C#N)cc2-c2nc3cc(-c4cnc(N)nc4)ccc3n2C(C)(C)C)n1` [3-[5-(2-Amino-pyrimidin-5-yl)-1-tert-butyl-1H-benzoimidazol-2-yl]-4-(3,5-dimethyl-[1,2,4]triazol-1-yl)-benzonitrile], the 50% inhibitory concentration (IC50) was found to be 2.5 nM.

Consider `CC(C)(COc1ccc(-n2cncn2)c(-c2nc3cc(-c4cnc(N)nc4)ccc3n2C(C)(C)C)c1)C(=O)O` [3-{3-[5-(2-Amino-pyrimidin-5-yl)-1-tert-butyl-1H-benzimidazol-2-yl]-4-1,2,4-triazol-1-yl-phenoxy}-2,2-dimethyl-propionic acid], for which the IC50 came out at 5.9 nM.

As to `CC(C)(C)n1c(-c2cc(Cl)ccc2-n2cccn2)nc2cc(-c3cnc(N)nc3)ccc21` [5-[1-tert-Butyl-2-(5-chloro-2-pyrazol-1-yl-phenyl)-1H-benzimidazol-5-yl]-pyrimidin-2-ylamine], the IC50 is 1.3 nM.

For the compound `C=Cc1ccc(-n2cncn2)c(-c2nc3cc(-c4cnc(N)nc4)ccc3n2C(C)(C)C)c1` [5-[1-tert-Butyl-2-(2-1,2,4-triazol-1-yl-5-vinyl-phenyl)-1H-benzimidazol-5-yl]-pyrimidin-2-ylamine], the IC50 was 1.3 nM.

Regarding `CC(C)(C)n1c(-c2cc(OC3CCOC3)ccc2-n2cncn2)nc2cc(-c3cnc(N)nc3)ccc21` (stereo not shown) [5-{1-tert-Butyl-2-[5-(tetrahydro-furan-3-yloxy)-2-1,2,4-triazol-1-yl-phenyl]-1H-benzimidazol-5-yl}-pyrimidin-2-ylamine], the IC50 is 6.9 nM.

`Cc1noc(-c2ccc(Cl)cc2-c2nc3cc(-c4cnc(N)nc4)ccc3n2C(C)(C)C)n1` [5-{1-tert-Butyl-2-[5-chloro-2-(3-methyl-1,2,4-oxadiazol-5-yl)-phenyl]-1H-benzimidazol-5-yl}-pyrimidin-2-ylamine]: the half-inhibitory concentration (IC50) stood at 1.9 nM.

Consider `COc1ccc(-n2cncn2)c(-c2nc3cc(-c4cnc(N)nc4)ccc3n2C(C)(C)C)c1` [5-[1-tert-Butyl-2-(5-methoxy-2-1,2,4-triazol-1-yl-phenyl)-1H-benzimidazol-5-yl]-pyrimidin-2-ylamine], for which the IC50 came to 1.7 nM.

For `CCOC(=O)C(C)(C)COc1ccc(-c2nc3cc(-c4cnc(N)nc4)ccc3n2C(C)(C)C)c(-n2cncn2)c1` [3-{4-[5-(2-Amino-pyrimidin-5-yl)-1-tert-butyl-1H-benzoimidazol-2-yl]-3-[1,2,4]triazol-1-yl-phenoxy}-2,2-dimethyl-propionic acid ethyl ester], the IC50 turned out to be 2.7 nM.

Regarding `CCNC(=O)Oc1ccc(-n2cncn2)c(-c2nc3cc(-c4cnc(N)nc4)ccc3n2C(C)(C)C)c1` [Ethyl-carbamic acid 3-[5-(2-amino-pyrimidin-5-yl)-1-tert-butyl-1H-benzimidazol-2-yl]-4-1,2,4-triazol-1-yl-phenyl ester], the IC50 came out at 1.1 nM.

Consider `COC(=O)c1ccc(-n2cncn2)c(-c2nc3cc(-c4cnc(N)nc4)ccc3n2C(C)(C)C)c1` [3-[5-(2-Amino-pyrimidin-5-yl)-1-tert-butyl-1H-benzoimidazol-2-yl]-4-[1,2,4]triazol-1-yl-benzoic acid methyl ester], for which the concentration for half-maximal inhibition (IC50) turned out to be 2.7 nM.
